From PubChem BioAssay AID330 (DTP/NCI, 2004)
Several values for one entry are separate records, joined by “and”; a condition that tells them apart may be missing. Equal entries are not always repeated. Inconclusive results and toxic doses are left out. How the source made its calls: active means survival T/C of 150% or more; inactive means T/C below 125% in these data.

Tested on: P388 leukemia ip, CD2F1 mice, survival T/C
Assay: NCI In Vivo Anticancer Drug Screen. Data for tumor model P388 Leukemia (intraperitoneal) in CD2F1 (CDF1) mice
Conditions: endpoint: median survival time, higher = longer survival
Summary of the method: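 Mice carrying the transplanted tumor received test compound or vehicle. Survival was recorded in each group, and the value is the treated-group measurement divided by that of the vehicle-treated control group.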

[1] = dose: 100.0 mg/kg/injection, schedule: Q04DX002 (ip), vehicle: saline
[2] = dose: 200.0 mg/kg/injection, schedule: Q04DX002 (ip), vehicle: saline
[3] = dose: 400.0 mg/kg/injection, schedule: Q04DX002 (ip), vehicle: saline
[4] = dose: 50.0 mg/kg/injection, schedule: Q01DX005 (ip), vehicle: saline with Tween-80
[5] = dose: 100.0 mg/kg/injection, schedule: Q01DX005 (ip), vehicle: saline with Tween-80
[6] = dose: 200.0 mg/kg/injection, schedule: Q01DX005 (ip), vehicle: saline with Tween-80
[7] = dose: 100.0 mg/kg/injection, schedule: Q04DX003 (ip), vehicle: saline with Tween-80
[8] = dose: 200.0 mg/kg/injection, schedule: Q04DX003 (ip), vehicle: saline with Tween-80
[9] = dose: 400.0 mg/kg/injection, schedule: Q04DX003 (ip), vehicle: saline with Tween-80
[10] = dose: 50.0 mg/kg/injection, schedule: Q01DX005 (ip), vehicle: Klucel (hydroxypropylcellulose) (HPC)
[11] = dose: 100.0 mg/kg/injection, schedule: Q01DX005 (ip), vehicle: Klucel (hydroxypropylcellulose) (HPC)
[12] = dose: 200.0 mg/kg/injection, schedule: Q01DX005 (ip), vehicle: Klucel (hydroxypropylcellulose) (HPC)
[13] = dose: 50.0 mg/kg/injection, schedule: Q01DX009 (ip), vehicle: saline with Tween-80

Measured: T/C

CC(C)c1cc(C2C(=O)c3ccccc3C2=O)cc(C(C)C)c1O
inactive: [1] 106 % of control | [2] 114 % of control | [3] 108 % of control

O=C1Nc2cc3c(cc2C(=O)N2C/C(=N/O)CC12)OCO3 (configuration not stated)
inactive: [4] 107 % of control | [5] 99 % of control | [6] 101 % of control

COc1ccc2c(c1)CC[C@@H]1[C@@H]2CC[C@]2(C)/C(=N\O)CC[C@@H]12
inactive: [7] 90 % of control | [8] 90 % of control | [9] 100 % of control

Cc1c(C)c(C)c(S(=O)(=O)OCCCl)c(C)c1C
inactive: [4] 98 % of control | [5] 92 % of control | [6] 95 % of control

CC(=O)NC(C=O)C(O)C(O)C(O)C(=O)O (configuration not stated) (tested in a mixture with another compound)
inactive: dose: 6.25 mg/kg/injection, schedule: Q01DX009 (ip), vehicle: Klucel (hydroxypropylcellulose) (HPC) 101 % of control | dose: 12.5 mg/kg/injection, schedule: Q01DX009 (ip), vehicle: Klucel (hydroxypropylcellulose) (HPC) 94 % of control | dose: 25.0 mg/kg/injection, schedule: Q01DX009 (ip), vehicle: Klucel (hydroxypropylcellulose) (HPC) 92 % of control

C1CC2CC3CCCCN3COC2C1 (configuration not stated)
inactive: dose: 100.0 mg/kg/injection, schedule: Q04DX003 (ip), vehicle: saline 102 % of control | dose: 200.0 mg/kg/injection, schedule: Q04DX003 (ip), vehicle: saline 118 % of control

O=C(/C=C/c1cccs1)c1ccc(Nc2ccnc3cc(Cl)ccc23)cc1
inactive: dose: 100.0 mg/kg/injection, schedule: Q01DX001 (ip), vehicle: saline with Tween-80 94 % of control | dose: 200.0 mg/kg/injection, schedule: Q01DX001 (ip), vehicle: saline with Tween-80 98 % of control | dose: 400.0 mg/kg/injection, schedule: Q01DX001 (ip), vehicle: saline with Tween-80 94 % of control

Nc1cc(=O)[nH][nH]1
inactive: [7] 100 % of control | [8] 100 % of control | [9] 109 % of control

NC(=O)c1n[nH]c(=S)[nH]c1=O
inactive: [10] 102 % of control | [11] 91 % of control | [12] 96 % of control

O=C1CCCCCCCCCCCCCCO1
inactive: dose: 50.0 mg/kg/injection, schedule: Q01DX009 (ip), vehicle: Klucel (hydroxypropylcellulose) (HPC) 97 % of control | dose: 100.0 mg/kg/injection, schedule: Q01DX009 (ip), vehicle: Klucel (hydroxypropylcellulose) (HPC) 106 % of control | dose: 200.0 mg/kg/injection, schedule: Q01DX009 (ip), vehicle: Klucel (hydroxypropylcellulose) (HPC) 102 % of control | dose: 400.0 mg/kg/injection, schedule: Q01DX009 (ip), vehicle: Klucel (hydroxypropylcellulose) (HPC) 106 % of control

O=C(O)Cc1cn2cccnc2n1
inactive: dose: 50.0 mg/kg/injection, schedule: Q04DX002 (ip), vehicle: saline with Tween-80 115 % of control | dose: 100.0 mg/kg/injection, schedule: Q04DX002 (ip), vehicle: saline with Tween-80 99 % of control | dose: 200.0 mg/kg/injection, schedule: Q04DX002 (ip), vehicle: saline with Tween-80 96 % of control

CC(S)c1ccccc1 (configuration not stated)
inactive: [13] 115 % of control | dose: 100.0 mg/kg/injection, schedule: Q01DX009 (ip), vehicle: saline with Tween-80 113 % of control | dose: 200.0 mg/kg/injection, schedule: Q01DX009 (ip), vehicle: saline with Tween-80 115 % of control

CC1(C)CC(=O)C(C(c2ccc3c(c2)OCO3)N2CCOCC2)C(=O)C1 (configuration not stated)
inactive: dose: 60.0 mg/kg/injection, schedule: Q01DX005 (ip), vehicle: Klucel (hydroxypropylcellulose) (HPC) 117 % of control | dose: 120.0 mg/kg/injection, schedule: Q01DX005 (ip), vehicle: Klucel (hydroxypropylcellulose) (HPC) 109 % of control

C=CCC(C(=O)OC)c1ccccc1 (configuration not stated)
inactive: dose: 0.4 mg/kg/injection, schedule: Q01DX009 (ip), vehicle: saline with Tween-80 99 % of control | dose: 0.8 mg/kg/injection, schedule: Q01DX009 (ip), vehicle: saline with Tween-80 98 % of control | dose: 1.6 mg/kg/injection, schedule: Q01DX009 (ip), vehicle: saline with Tween-80 104 % of control

C=CCN1C(SC)=NC(=O)C1(c1ccccc1)c1ccccc1
inactive: [10] 100 % of control | [11] 104 % of control | [12] 102 % of control

COc1ccc(C2=NC(C)(C)CO2)cc1C
inactive: [4] 103 % of control | [5] 103 % of control | [6] 94 % of control

Nc1c(Br)cc2c(c1Br)Cc1cc([N+](=O)[O-])ccc1-2
inactive: dose: 31.3 mg/kg/injection, schedule: Q01DX010 (ip), vehicle: saline 90 % of control | dose: 62.5 mg/kg/injection, schedule: Q01DX010 (ip), vehicle: saline 100 % of control | dose: 125.0 mg/kg/injection, schedule: Q01DX010 (ip), vehicle: saline 105 % of control | dose: 250.0 mg/kg/injection, schedule: Q01DX010 (ip), vehicle: saline 110 % of control

OCC1CC2C=CC1O2 (configuration not stated)
inactive: [4] 101 % of control | [5] 114 % of control | [6] 95 % of control

N#C/C(N)=C(\C#N)N=c1c(-c2ccccc2)c1-c1ccccc1
inactive: [10] 102 % of control and 103 % of control | [11] 103 % of control and 113 % of control | [12] 109 % of control and 122 % of control

O=C(O)C(C1CCCCC1)C1(O)CCCCCC1 (configuration not stated)
inactive: [10] 97 % of control | [11] 103 % of control | [12] 100 % of control

O=c1[nH][nH]c(=O)c2c1CCC2
inactive: dose: 6.25 mg/kg/injection, schedule: Q01DX009 (ip), vehicle: distilled water + Tween-80 100 % of control | dose: 12.5 mg/kg/injection, schedule: Q01DX009 (ip), vehicle: distilled water + Tween-80 100 % of control | dose: 25.0 mg/kg/injection, schedule: Q01DX009 (ip), vehicle: distilled water + Tween-80 100 % of control | dose: 50.0 mg/kg/injection, schedule: Q01DX009 (ip), vehicle: distilled water + Tween-80 107 % of control | dose: 100.0 mg/kg/injection, schedule: Q01DX009 (ip), vehicle: distilled water + Tween-80 103 % of control | dose: 200.0 mg/kg/injection, schedule: Q01DX009 (ip), vehicle: distilled water + Tween-80 100 % of control

COc1ccc(CC2c3cc(OC)c(OC)cc3CCN2C)cc1OC (configuration not stated)
inactive: dose: 1.5 mg/kg/injection, schedule: Q01DX005 (ip), vehicle: saline with Tween-80 97 % of control | dose: 3.0 mg/kg/injection, schedule: Q01DX005 (ip), vehicle: saline with Tween-80 98 % of control | dose: 6.0 mg/kg/injection, schedule: Q01DX005 (ip), vehicle: saline with Tween-80 99 % of control | [13] 91 % of control

Cc1coc2c1C[C@@]1(C)[C@H](C2)C(=O)CC[C@@H]1C
inactive: dose: 37.5 mg/kg/injection, schedule: Q01DX009 (ip), vehicle: Klucel (hydroxypropylcellulose) (HPC) 105 % of control

Cc1ccccc1-n1c(-c2ccccc2)cs/c1=N\N=C1/CSC(=O)N1Cc1ccccc1
inactive: dose: 100.0 mg/kg/injection, schedule: Q01DX001 (ip), vehicle: Klucel (hydroxypropylcellulose) (HPC) 107 % of control | dose: 200.0 mg/kg/injection, schedule: Q01DX001 (ip), vehicle: Klucel (hydroxypropylcellulose) (HPC) 104 % of control | dose: 400.0 mg/kg/injection, schedule: Q01DX001 (ip), vehicle: Klucel (hydroxypropylcellulose) (HPC) 89 % of control

COc1ccc(C(O)Cc2ccccc2)cc1 (configuration not stated)
inactive: dose: 31.25 mg/kg/injection, schedule: Q01DX009 (ip), vehicle: saline + Tween-80 + alcohol 93 % of control | dose: 62.5 mg/kg/injection, schedule: Q01DX009 (ip), vehicle: saline + Tween-80 + alcohol 91 % of control | dose: 125.0 mg/kg/injection, schedule: Q01DX009 (ip), vehicle: saline + Tween-80 + alcohol 91 % of control | dose: 250.0 mg/kg/injection, schedule: Q01DX009 (ip), vehicle: saline + Tween-80 + alcohol 89 % of control

O=[N+]([O-])c1ccc2c(c1)SC1=NN3C(O)COC(OCc4ccccc4)C3N12 (configuration not stated)
inactive: [1] 97 % of control | [2] 100 % of control | [3] 93 % of control

C[Si](C)(C)C#CC(OS(=O)(=O)C(F)(F)F)=C(c1ccccc1)c1ccccc1
inactive: [4] 98 % of control | [5] 99 % of control | [6] 92 % of control

NC(CSP(=O)(O)O)=NCC12CC3CC(CC(C3)C1)C2
inactive: dose: 3.12 mg/kg/injection, schedule: Q01DX009 (ip), vehicle: saline with Tween-80 100 % of control | dose: 6.25 mg/kg/injection, schedule: Q01DX009 (ip), vehicle: saline with Tween-80 104 % of control | dose: 12.5 mg/kg/injection, schedule: Q01DX009 (ip), vehicle: saline with Tween-80 110 % of control
